Data as given in patent US5254533A, “Elfamycin” (Rhone-Poulenc Rorer S.A., priority 1990, dated 1993).
Entries after “also recorded” stand apart in the source; their conditions may differ.

What was measured:
[1] = test system: Staphylococcus aureus 209P; test: MIC, antibacterial activity (agar dilution); assay type: cell-based; settings: Mueller Hinton Agar, about 18 h at about 37° C
[2] = test system: Staphylococcus aureus S tA 2; test: MIC, antibacterial activity (agar dilution); assay type: cell-based; settings: STA2, Mueller Hinton Agar, about 18 h at about 37° C
Staphylococcus faecalis = test: MIC, antibacterial activity (agar dilution); assay type: cell-based; settings: Mueller Hinton Agar, about 18 h at about 37° C
Streptococcus bovis 3 = test: MIC, antibacterial activity (agar dilution); assay type: cell-based; settings: Streptococcus equinus, Mueller Hinton Agar, about 18 h at about 37° C
Streptococcus bovis 5 = test: MIC, antibacterial activity (agar dilution); assay type: cell-based; settings: Streptococcus equinus, Mueller Hinton Agar, about 18 h at about 37° C
Streptococcus uberis 8 = test: MIC, antibacterial activity (agar dilution); assay type: cell-based; settings: Mueller Hinton Agar, about 18 h at about 37° C
[3] = test system: Escherichia coli INRA ECi; test: MIC, antibacterial activity (agar dilution); assay type: cell-based; settings: Mueller Hinton Agar, about 18 h at about 37° C
Escherichia coli DC2 = test: MIC, antibacterial activity (agar dilution); assay type: cell-based; settings: Mueller Hinton Agar, about 18 h at about 37° C
Procedure: (§1) Description of the test method used
(§2) The strains used, identified in the following table, were thawed at the time of use and then diluted to obtain the following concentrations:
(§3) 10^7 bacteria/ml for the aerobic bacteria
(§4) 10^6 bacteria/ml for the anaerobic bacteria.
(§5) A stock suspension of the product of formula (II) was prepared at a concentration of 3000 mg/1 in water. It was then diluted with water to obtain concentrations of 300 mg/l, 100 mg/l, 50 mg/l and 25 mg/l.
(§6) The culture media were the following:
(§7) Mueller Hinton Agar (MHA) for the aerobic cultures
(§8) Mueller Hinton Agar (MHA)+2% Fildes (MHA) for the anaerobic cultures.
(§9) Each dilution of product was added to 20 mls of the culture medium maintained supercooled at 45° C., and the medium was then poured into Petri dishes. After gentle agitation, the dishes were dried open for about 1 hour at about 37° C.
(§10) Inoculation was carried out with a DENLEY multipoint inoculator, which deposited 10^-3 ml of each inoculum per spot.
(§11) Reading was performed after about 18 hours of incubation at about 37° C. for the aerobes and about 48 hours at about 37° C. for the anaerobes.
(§12) The minimal inhibitory concentration (MIC) was the lowest concentration for which no growth was observed.

Escherichia coli DCO = test: MIC, antibacterial activity (agar dilution); assay type: cell-based; settings: Mueller Hinton Agar, about 18 h at about 37° C
Procedure: as §1, §2, §3, §4, §5, §6, §7, §8, §9, §10, §11, §12

[4] = test system: Klebsiella pneumoniae Caroli; test: MIC, antibacterial activity (agar dilution); assay type: cell-based; settings: Mueller Hinton Agar, about 18 h at about 37° C
[5] = test system: Pseudomonas aeruginosa IP A 237; test: MIC, antibacterial activity (agar dilution); assay type: cell-based; settings: IPA237, Mueller Hinton Agar, about 18 h at about 37° C
Proteus vulgaris IP A272 = test: MIC, antibacterial activity (agar dilution); assay type: cell-based; settings: IPA272, Mueller Hinton Agar, about 18 h at about 37° C
[6] = test system: Proteus mirabilis Villette; test: MIC, antibacterial activity (agar dilution); assay type: cell-based; settings: Mueller Hinton Agar, about 18 h at about 37° C
[7] = test system: Bacteroides fragilis ATCC 25285; test: MIC, antibacterial activity (agar dilution); assay type: cell-based; settings: ATCC25285, anaerobic, Mueller Hinton Agar + 2% Fildes, about 48 h at about 37° C
[8] = test system: Bacteroides fragilis 479R; test: MIC, antibacterial activity (agar dilution); assay type: cell-based; settings: anaerobic, Mueller Hinton Agar + 2% Fildes, about 48 h at about 37° C
[9] = test system: Bacteroides melaninogenicus ATCC 15930; test: MIC, antibacterial activity (agar dilution); assay type: cell-based; settings: Prevotella intermedia, ATCC15930; anaerobic, Mueller Hinton Agar + 2% Fildes, about 48 h at about 37° C
[10] = Use as a growth factor in weaned piglets (Example 5); assay type: in vivo, weaned Large-White Belgian Landrace crossed piglets; settings: for Initial weight: start of period 14-28 days; for Index of consumption: consumption/weight gain ratio
[11] = Use as a growth factor in piglets (Example 6); assay type: in vivo, weaned Large-White Belgian Landrace crossed piglets; settings: for Final weight: control 24.7
Excerpt: 130 weaned Large-White Belgian Landrace crossed piglets were used. The experiment began 2 weeks after weaning of the animals, i.e. at a mean age of 42 days.
The animals received the experimental feed ad libitum in the form of granules 2.5 mm in diameter.
The animals were weighed at the beginning, middle and end of the experiment. The consumptions were noted every week.
Tables 7, 8 and 9 respectively show the percentage composition and the characteristics of the diets, the percentage composition of the CMV and the percentage composition of the premixes.
The results are shown in Table 10 for the period 0-14 days, Table 11 for the period 14-28 days and Table 12 for the period 0-28 days.

C/C=C\C=C\C1OC(O)(C(CC)C(=O)NC/C=C/C=C(\C)C(OC)C(C)C2CC(O)C(/C=C/C=C/C=C/C(=O)O)O2)C(O)C(O)C1(C)C (stereo not shown) [formula (II)]
MIC [1]: > 300 µg/mL
MIC [2]: > 300 µg/mL
MIC (Staphylococcus faecalis): > 300 µg/mL
MIC (Streptococcus bovis 3): > 300 µg/mL
MIC (Streptococcus bovis 5): 25 µg/mL
MIC (Streptococcus uberis 8): 100 µg/mL
MIC [3]: > 300 µg/mL
MIC (Escherichia coli DC2): 100 µg/mL
MIC (Escherichia coli DCO): > 300 µg/mL
MIC [4]: > 300 µg/mL
MIC [5]: > 300 µg/mL
MIC (Proteus vulgaris IP A272): > 300 µg/mL
MIC [6]: > 300 µg/mL
MIC [7]: > 100 µg/mL
MIC [8]: > 100 µg/mL
MIC [9]: > 100 µg/mL
Weight gain ([10]; 40 ppm in feed, 0-14 days, control 329): 360 g/day
Consumption ([10]; 40 ppm in feed, 0-14 days, control 614): 625 g/day
Weight gain ([10]; 40 ppm in feed, 0-28 days, control 445): 490 g/day
Consumption ([10]; 40 ppm in feed, 0-28 days, control 822): 847 g/day
Weight gain ([10]; 40 ppm in feed, 14-28 days, control 560): 620 g/day
Consumption ([10]; 40 ppm in feed, 14-28 days, control 1031): 1068 g/day
Intermediate Weight ([10]; 40 ppm in feed, Table 4, 0-14 days, control 15.3): 15.8 kg
Intermediate Weight ([10]; 40 ppm in feed, Table 5, 14-28 days, control 23.1): 24.5 kg
Intermediate Weight ([10]; 40 ppm in feed, Table 6, 0-28 days, control 23.1): 24.5 kg
Initial weight ([10]; 40 ppm in feed, control 15.3): 15.8 kg
improvement in growth relative to the basic diet ([10]; 40 ppm, overall period 0-28 days): 10%
performances of the animals (in words) ([10]; 60 ppm compared with the same product at 40 ppm, 0-28 days): somewhat behind those observed with the same product at 40 ppm
Weight gain ([10]; 60 ppm in feed, 0-14 days, control 329): 338 g/day
Consumption ([10]; 60 ppm in feed, 0-14 days, control 614): 599 g/day
Weight gain ([10]; 60 ppm in feed, 0-28 days, control 445): 463 g/day
Consumption ([10]; 60 ppm in feed, 0-28 days, control 822): 812 g/day
Weight gain ([10]; 60 ppm in feed, 14-28 days, control 560): 588 g/day
Consumption ([10]; 60 ppm in feed, 14-28 days, control 1031): 1026 g/day
Intermediate Weight ([10]; 60 ppm in feed, Table 4, 0-14 days, control 15.3): 15.3 kg
Intermediate Weight ([10]; 60 ppm in feed, Table 5, 14-28 days, control 23.1): 23.5 kg
Intermediate Weight ([10]; 60 ppm in feed, Table 6, 0-28 days, control 23.1): 23.5 kg
Initial weight ([10]; 60 ppm in feed, control 15.3): 15.3 kg
Index of consumption ([10]; 40 ppm in feed, 0-14 days, control 1.88): 1.77
Index of consumption ([10]; 40 ppm in feed, 0-28 days, control 1.85): 1.73
Index of consumption ([10]; 40 ppm in feed, 14-28 days, control 1.86): 1.73
Index of consumption ([10]; 60 ppm in feed, 0-14 days, control 1.88): 1.78
Index of consumption ([10]; 60 ppm in feed, 0-28 days, control 1.85): 1.75
Index of consumption ([10]; 60 ppm in feed, 14-28 days, control 1.86): 1.74
effect on index of consumption (in words) ([10]; overall period 0-28 days): improved quite significantly
effect on consumption (in words) ([10]; overall period 0-28 days, listed as product II): did not bring about a significant improvement in consumption; also recorded: comparable to tylosin
Index of consumption ([11]; 10 ppm in feed, 0-14 days, control 1.76): 1.70
Weight gain ([11]; 10 ppm in feed, 0-14 days, control 368): 418 g/day
Consumption ([11]; 10 ppm in feed, 0-14 days, control 645): 694 g/day
Index of consumption ([11]; 10 ppm in feed, 0-28 days, control 1.80): 1.72
Weight gain ([11]; 10 ppm in feed, 0-28 days, control 474): 533 g/day
Consumption ([11]; 10 ppm in feed, 0-28 days, control 852): 914 g/day
Index of consumption ([11]; 10 ppm in feed, 14-28 days, control 1.84): 1.75
Weight gain ([11]; 10 ppm in feed, 14-28 days, control 579): 648 g/day
Consumption ([11]; 10 ppm in feed, 14-28 days, control 1059): 1133 g/day
Final weight ([11]; 10 ppm in feed, Table 11, 14-28 days): 26.4 kg
Final weight ([11]; 10 ppm in feed, Table 12, 0-28 days): 26.4 kg
Index of consumption ([11]; 20 ppm in feed, 0-14 days, control 1.76): 1.61
Weight gain ([11]; 20 ppm in feed, 0-14 days, control 368): 430 g/day
Consumption ([11]; 20 ppm in feed, 0-14 days, control 645): 689 g/day
Index of consumption ([11]; 20 ppm in feed, 0-28 days, control 1.80): 1.69
Weight gain ([11]; 20 ppm in feed, 0-28 days, control 474): 547 g/day
Consumption ([11]; 20 ppm in feed, 0-28 days, control 852): 927 g/day
Index of consumption ([11]; 20 ppm in feed, 14-28 days, control 1.84): 1.75
Weight gain ([11]; 20 ppm in feed, 14-28 days, control 579): 664 g/day
Consumption ([11]; 20 ppm in feed, 14-28 days, control 1059): 1164 g/day
Final weight ([11]; 20 ppm in feed, Table 11, 14-28 days): 26.8 kg
Final weight ([11]; 20 ppm in feed, Table 12, 0-28 days): 26.8 kg
Index of consumption ([11]; 40 ppm in feed, 0-14 days, control 1.76): 1.70
Weight gain ([11]; 40 ppm in feed, 0-14 days, control 368): 416 g/day
Consumption ([11]; 40 ppm in feed, 0-14 days, control 645): 701 g/day
Index of consumption ([11]; 40 ppm in feed, 0-28 days, control 1.80): 1.70
Weight gain ([11]; 40 ppm in feed, 0-28 days, control 474): 532 g/day
Consumption ([11]; 40 ppm in feed, 0-28 days, control 852): 900 g/day
Index of consumption ([11]; 40 ppm in feed, 14-28 days, control 1.84): 1.70
Weight gain ([11]; 40 ppm in feed, 14-28 days, control 579): 648 g/day
Consumption ([11]; 40 ppm in feed, 14-28 days, control 1059): 1099 g/day
Final weight ([11]; 40 ppm in feed, Table 11, 14-28 days): 26.4 kg
Final weight ([11]; 40 ppm in feed, Table 12, 0-28 days): 26.4 kg
